Drawing on PubChem BioAssay (NCI), this text covers TGI for seven compounds.

Holding throughout (experiment): growth of human tumour cells (NCI), 48 h
For test [1], the system named is UO-31 renal.
Test [2] relates to HCT-15 colon.
For test [3], the system named is PC-3 prostate.
For test [4], the system named is U251 CNS.
Test [5] concerns SK-MEL-5 melanoma.
Test [6] has as its system HOP-62 NSCLC.
For test [7], the system named is RPMI-8226 leukemia.
Test [8] concerns EKVX NSCLC.
The subject of test [9] is SR leukemia.
The subject of test [10] is HCT-116 colon.
For test [11], the system named is T-47D breast.
Test [12] deals with A549 NSCLC.
Test [13] concerns HCC-2998 colon.
For test [14], the system named is TK-10 renal.
In test [15] the test system is SNB-19 CNS.
In test [16] the test system is NCI-H23 lung.
In test [17] the test system is UACC-62 melanoma.
In test [18] the test system is SNB-75 CNS.
Test [19] deals with SK-MEL-2 melanoma.

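Protocol summary: plate cells (96-well), add compound at 5 concentrations, incubate 48 h, interpolate endpoints linearly. TGI marks complete inhibition of growth.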 Some results are limits rather than exact numbers.

Regarding `O=c1[nH]ncc2[nH]c3c4ccccc4ccc3c12`, the TGI in [1] is > 100 µM; in test [2] it was 39.6 µM; in [3], > 100 µM; in [4] it was 90.7 µM; in test [5] it was > 100 µM; in [6], > 100 µM. Also, the TGI in [7] was > 100 µM; in test [8], > 100 µM; in test [9] it was > 100 µM; in test [10], > 100 µM; in [11], > 100 µM; in test [12] it was 65.6 µM. The TGI in test [13] and in test [14] was > 100 µM in each case.
As to `CC1CN=C(Nc2cccc(F)c2)S1` (stereo not given), the TGI in [1], in [15], in test [2], in test [3], in test [4] and in test [5] was > 100 µM throughout. Besides, the TGI in test [16], in test [6], in [7], in test [8], in test [17] and in [18] was > 100 µM each time. Also, the TGI in test [9], in [10], in test [19], in test [11], in test [12] and in test [13] was > 100 µM in each case. The TGI in test [14] was > 100 µM.
As for `N=c1oc2ccccc2cc1-c1nc2ccccc2[nH]1`, the TGI in test [1] is 24.8 µM; in [15], > 100 µM; in [2], > 100 µM; in test [3], > 100 µM; in [4] it was > 100 µM; in [5], > 100 µM. In addition, the TGI in test [6] was > 100 µM; in [7], > 100 µM; in test [8], 41.1 µM; in test [17] it was > 100 µM; in [18], > 100 µM; in [9] it was > 100 µM. In addition, the TGI is > 100 µM in [10]; > 100 µM in test [19]; > 100 µM in [11]; > 100 µM in [12]; > 100 µM in [13]; 38.4 µM in [14].
Take `O=Cc1ccc(OC[C@H]2COC(=O)N2)cc1`: the TGI in [1], in test [15], in test [2], in [3], in test [4] and in [5] was > 100 µM throughout. For the same compound, the TGI in [16], in test [6], in test [8], in [17], in test [18] and in [9] was > 100 µM in each case. For the same compound, the TGI in test [10], in test [19], in test [11], in [12], in test [13] and in [14] was > 100 µM each time.
Take `COc1ccc2c(O)c(S(=O)(=O)c3ccc(C)cc3)c(=O)oc2c1OC`: the TGI in test [1], in test [15], in test [2], in test [3], in test [4] and in [5] was > 100 µM each time. Also, the TGI in test [16], in [7], in test [8], in test [17], in test [18] and in test [9] was > 100 µM throughout. For the same compound, the TGI in test [10], in test [19], in test [11], in [12], in test [13] and in test [14] was > 100 µM throughout.
On to `Oc1[nH]c2ccccc2c1C1=Nc2ccccc2/C1=N\OCCOC1OCC(O)C(O)C1O` (stereo not given), for which the TGI in test [1], in test [15], in test [2], in [3], in [4] and in test [5] was > 100 µM in each case. The TGI in test [16], in [6], in test [7], in test [8], in test [17] and in [18] was > 100 µM throughout. In addition, the TGI in [9], in test [10], in test [19], in [11], in test [12] and in [13] was > 100 µM each time. In addition, the TGI in test [14] is > 100 µM.
`Nc1[nH]c(=O)nc2snnc12`: the TGI in [1] was > 31.2 µM; in test [15], > 100 µM; in test [2], > 100 µM; in [3] it was > 100 µM; in test [4], > 100 µM; in [5] it was > 100 µM. In addition, the TGI in [16] is > 100 µM; in test [6], > 100 µM; in [7] it was > 100 µM; in test [8], > 100 µM; in [17], > 78.3 µM; in test [18], > 100 µM. The TGI is > 100 µM in [9]; > 100 µM in test [10]; 14.4 µM in test [19]; > 100 µM in test [11]; > 100 µM in [12]; > 100 µM in [13]. Moreover, in test [14], the TGI was > 83.9 µM.
